Laboratory results taken from patent US5473051A, “Inhibition of Mac-1 receptor binding to fibrinogen using D30 homologs” (The Scripps Research Institute, priority 1991, dated 1995).
“And” between values parts separate entries of the source, which are not always exact repeats. Identical values can stand only once. “Also recorded” adds a separate entry of the source.

Assays:
neutrophils or monocytes = assay: Cell attachment to polypeptide-coated wells; type: cell-based, human
Protocol: To determine the Mac-1 receptor-binding site on the gamma chain of D30, the synthetic polypeptides prepared above were separately evaluated in cell attachment assays. For these assays, wells of 96-well microtiter plates (Linbro/Titertek; Flow Laboratories, VA) were coated with 60 μl of a 1 mg/ml solution of individual synthetic polypeptides prepared above. The wells containing the dissolved polypeptides were maintained for 16 hours at 4° C. The wells were then washed twice with PBS and blocked for 30 minutes with 0.1% BSA in PBS. After a final wash, 100 μl of DMEM containing 1% fetal bovine serum and 2×10^5 cells/ml of either neutrophils or monocytes prepared respectively in Example 2B and Example 8D were admixed into each well. The cells were maintained for 30 minutes at room temperature to allow the cells to attach to the polypeptide-coated wells. Non-adherant cells were removed from the wells by washing twice with PBS. […]
Adherent cells were quantitated by staining with 0.5% crystal violet. […] The optical density (O.D.) at 550 nm was determined with an ELISA reader (Biotek Instruments). Non-specific adherence was determined by plating cells on BSA-coated wells for the appropriate period of time. Specific adhesion to a given polypeptide substrate was calculated by subtracting the O.D. obtained with cells plated on BSA from that observed for cells plated on individual polypeptides. […]

THP-1 cells = assay: Inhibition of THP-1 cell attachment to fibrinogen-coated wells; type: cell-based, human
Protocol: Cell attachment assays were performed to determine if the Plb polypeptide (SEQ ID NO 13) which was derived from the gamma chain of D30 from residue 195 to residue 201 would inhibit the binding of THP-1 cells to fibrinogen-coated plates as effectively as the larger polypeptide, P1 (SEQ ID NO 12). The assays were performed as described in Example 8C with the following modifications: the microtiter wells were coated with 10 μg/ml of fibrinogen overnight at room temperature to form fibrinogen-coated wells; the unoccupied sites on the wells were then blocked to prevent non-specific background with 3% gelatin for 30 minutes at room temperature; 2×10^5 THP-1 cells prepared as described in Example 8D2) were separately admixed with the polypeptides P1, […] and L10, the latter of which served as a control, ranging in concentration from 0.03 mg/ml to 1 mg/ml to form THP-1 cell-polypeptide admixtures; the resultant admixtures were maintained for 30 minutes at room temperature after which time the cells were admixed to the fibrinogen-coated plates as described in Example 8C.
The results of the inhibition of cell attachment assay are shown above in Table 2. The absorbance of crystal violet stain, indicating the relative number of cells that attached to the fibrinogen-coated wells, was measured at 600 nm. The absorbance values are tabulated in columns according to the concentration of each polypeptide separately tested in the assay. […] These six amino acid residues comprise the Mac-1 receptor binding site of fibrinogen.

Mac-1 receptor [1] = target: T1, Mac-1 receptor (Homo sapiens, UniProt P05107+P11215); assay: Inhibition of 125I-P1 binding to THP-1 cells; parameters: Separate aliquots of the resuspended Mac-1 receptor-bearing neutrophils were stimulated with 10 μM of the chemotactic peptide; endogenous in cells; details: one hour
T1 sequence (P05107 23-769, other chains not shown): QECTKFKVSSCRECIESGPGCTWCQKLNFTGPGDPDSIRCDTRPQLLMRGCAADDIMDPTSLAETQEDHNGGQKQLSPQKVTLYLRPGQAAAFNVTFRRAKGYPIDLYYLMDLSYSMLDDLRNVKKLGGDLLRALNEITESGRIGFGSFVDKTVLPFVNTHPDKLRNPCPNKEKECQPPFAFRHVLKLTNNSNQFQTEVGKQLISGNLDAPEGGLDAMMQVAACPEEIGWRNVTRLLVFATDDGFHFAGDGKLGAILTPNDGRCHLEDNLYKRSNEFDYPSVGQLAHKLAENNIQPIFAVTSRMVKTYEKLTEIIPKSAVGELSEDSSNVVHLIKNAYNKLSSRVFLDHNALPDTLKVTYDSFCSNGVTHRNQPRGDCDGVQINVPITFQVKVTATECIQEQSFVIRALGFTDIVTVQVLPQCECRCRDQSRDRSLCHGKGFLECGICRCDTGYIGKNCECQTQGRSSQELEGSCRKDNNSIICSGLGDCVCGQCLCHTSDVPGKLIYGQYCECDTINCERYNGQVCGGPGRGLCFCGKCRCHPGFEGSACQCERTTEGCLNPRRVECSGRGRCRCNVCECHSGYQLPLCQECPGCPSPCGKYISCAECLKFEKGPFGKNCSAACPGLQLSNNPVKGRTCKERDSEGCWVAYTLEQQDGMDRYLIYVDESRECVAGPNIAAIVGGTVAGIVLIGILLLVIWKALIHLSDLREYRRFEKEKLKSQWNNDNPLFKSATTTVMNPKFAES
Protocol: Similar binding assays and inhibition thereof were performed using the monocytic cell line THP-1 (ATCC TIB 202, Bethesda, Md.). THP-1 cells were maintained in RPMI 1640 supplemented with 10% fetal bovine serum (HyClone, Logan, UT), 20 mM Hepes, 100 μg/ml gentamycin, 2 mM L-glutamine and 10 μM beta-mercaptoethanol. The competitive inhibitors evaluated in the assay to compete for the binding of the labeled P1 polypeptide to THP-1 cells included the following:D30 prepared as described in Example 1; the irrelevant polypeptide L10 described above; the monoclonal antibody IB4 which recognizes the beta subunit of the Mac-1 receptor (Wright et al., Proc. Natl. Acad. Sci., USA, 80:5699-5703 (1983); the monoclonal antibody M1/70 which recognizes the alpha subunit of the Mac-1 receptor (Ho et al., J. Biol. Chem., 258:2766-2769 (1983); and a monoclonal antibody against tissue factor as described by Morrisey et al., Thromb. Res., 52:247-261 (1988 ).
The assays in which D30 or polypeptides derived therefrom were performed as described above and in Example 6. The assays in which antibodies were used as competitive inhibitors were performed as described in Example 2C using 50 μg/ml of each antibody. […] The amount of binding of radiolabelled P1 polypeptide to THP-1 cells was measured after a […] maintenance period in the absence or presence of unlabelled competitors. […]

Mac-1 receptor [2] = target: T1, Mac-1 receptor; assay: Binding of 125I-P1 to monocytes and competition; parameters: Separate aliquots of the resuspended Mac-1 receptor-bearing neutrophils were stimulated with 10 μM of the chemotactic peptide; endogenous in cells; host or cells: neutrophils from blood of normal volunteers, stimulated with fMLP
Protocol: Anticoagulated blood was prepared as described in Example 2B. After resuspending the pelleted erythrocytes, mononuclear and polynuclear cells with a volume equal to the starting blood volume with chilled 0.14M PBS, 35 ml of the cell suspension were layered onto 15 ml of Ficoll-Hypaque (Pharmacia) in a 50 ml polypropylene tube and centrifuged at 400×g for 40 minutes at room temperature. The cells at the interface were carefully removed with sterile plastic pipettes and were then washed two times with excess 5 mM PBS-EDTA (ethylene diamine tetracetic acid). The washed cells were then centrifuged first at 400×g for 20 minutes at 4° C., the pellet was resuspended as above, then the suspension was centrifuged again at 120×g for 12 minutes at 4° C. The cell pellet was again resuspended to form a PMBC cell suspension. […]
Human monocytes were purified from the platelet-free PMBC cell suspension as described by Fischer et al., Academic Press, Inc., New York, pp: 43-47 (1981). […] The purity of the monocyte preparation was greater than 90% as assessed by alpha-naphthyl acetate esterase staining and the viability was greater than 95% as judged by trypan blue exclusion. […]
The specific cell-associated binding of radiolabelled P1 to monocytes was measured over 60 minutes at 10 minute intervals and was calculated as described in Example 6. […]

Mac-1 receptor [3] = target: T1, Mac-1 receptor; assay: Inhibition of 125I-fibrinogen binding to THP-1 cells by polypeptide; parameters: Separate aliquots of the resuspended Mac-1 receptor-bearing neutrophils were stimulated with 10 μM of the chemotactic peptide; endogenous in cells; host or cells: neutrophils from blood of normal volunteers, stimulated with fMLP
Protocol: The specificity of the P1 polypeptide for the Mac-1 receptor on THP-1 cells was confirmed in assays where the binding of purified intact fibrinogen to THP-1 cells was inhibited by P1 but not by the irrelevant polypeptide, L10. The assays were performed as described in Example 6 with the exception that THP-1 cells prepared as described in Example 8D were used instead of neutrophils. The amount of polypeptide used in the assay ranged in concentration from 7 μg/ml up to 60 μg/ml.
The amount of radiolabelled fibrinogen bound to THP-1 cells was expressed as molecules/cell ×1000 and plotted on the ordinate against increasing polypeptide concentrations as shown in FIG. 7.

Mac-1 receptor [4] = target: T1, Mac-1 receptor; assay: Competition of 125I-fibrinogen binding to stimulated neutrophils; parameters: Separate aliquots of the resuspended Mac-1 receptor-bearing neutrophils were stimulated with 10 μM of the chemotactic peptide; endogenous in cells; host or cells: neutrophils from blood of normal volunteers, stimulated with fMLP
Protocol: Fibrinogen was purified as described in Example 1 and radiolabelled as described for D30 in Example 2A. Mac-1 receptor-bearing neutrophils were prepared as described in 2B. Separate aliquots of stimulated neutrophils at a concentration of 1.5×10^7 cells/ml were simultaneously incubated with a predetermined subsaturating dose of ^125 I-labelled fibrinogen (50 μg/ml) and increasing concentrations of various competing proteins for 20 minutes at room temperature. The reaction in the admixture was terminated by centrifugation through silicon oils as described in Example 2. The amount of labelled Mac-1 receptor:fibrinogen complex was determined by gamma detection. Non-specific binding was calculated as described in Example 2 and subtracted from the total to calculate specific binding.
Unlabelled fibrinogen and fibrinogen fragments X, D:E and D obtained as described in Example 1A and B were evaluated for their ability to compete for labelled fibrinogen binding to stimulated neutrophils.
Fibrinogen fragments E and D30 obtained as described in Example 1B were evaluated for their ability to compete for labelled fibrinogen binding to stimulated neutrophils.

Substance	promotion of cell attachment (in words) (neutrophils or monocytes)	inhibition of THP-1 cell attachment to fibrinogen (in words) (THP-1 cells; 0.03 to 1 mg/ml polypeptide)	polypeptide concentration giving maximal inhibition of THP-1 binding to fibrinogen (THP-1 cells; 0.03 to 1 mg/ml tested)	Absorbance at 600 nm (THP-1 cells attached to fibrinogen) (THP-1 cells; polypeptide 0.03 mg/ml)	Absorbance at 600 nm (THP-1 cells attached to fibrinogen) (THP-1 cells; polypeptide 0.125 mg/ml)	Absorbance at 600 nm (THP-1 cells attached to fibrinogen) (THP-1 cells; polypeptide 0.5 mg/ml)	Absorbance at 600 nm (THP-1 cells attached to fibrinogen) (THP-1 cells; polypeptide 0.60 mg/ml)	Absorbance at 600 nm (THP-1 cells attached to fibrinogen) (THP-1 cells; polypeptide 1.0 mg/ml)	total specific binding of P1 to THP-1 cells in the absence of competitors (Mac-1 receptor [1])	competition of 125I-P1 binding to monocytes (Mac-1 receptor [2]; 1 mg/ml cold polypeptide)	binding of radiolabelled P1 to monocytes (Mac-1 receptor [2]; one hour assay, 20,000 cpm 125I-P1)	inhibition of fibrinogen binding to THP-1 cells (in words) (Mac-1 receptor [3]; 7 to 60 μg/ml polypeptide)	polypeptide concentration giving maximal inhibition of fibrinogen binding to THP-1 cells (Mac-1 receptor [3]; 7 to 60 μg/ml tested) [µg/mL]	IC50 for inhibition of 125I-fibrinogen binding to stimulated neutrophils (Mac-1 receptor [4]; 50 μg/ml 125I-fibrinogen, 20 minutes at room temperature) [µg/mL]	competition of 125I-fibrinogen binding to stimulated neutrophils (in words) (Mac-1 receptor [4]; increasing concentrations of competitor)	125I-fibrinogen specifically bound in the absence of competitors (Mac-1 receptor [4]; stimulated neutrophils, 50 μg/ml 125I-fibrinogen)
KYGWTVFQKRLDGSV [P1, N-terminal lysine-tyrosine-glycine added]	promoting cells attachment	effective at inhibiting cell attachment at all concentrations	0,125 mg/ml	1.02	0.42	0.36	1.12	0.48	approximately 16,000 cpm	competitively inhibited; also recorded: competed	binds to monocytes in a non-saturable curve	inhibited	20	–	–	–
fibrinogen	–	–	–	–	–	–	–	–	–	–	–	–	–	25 to 50	compete	80,200±8,000 molecules/cell and 99,600±4,500 molecules/cell
